From US8697376B2, “Synthetic protease substrates, assay methods using such substrates and kits for practicing the assay” (Lifesensors, INc., priority 2010, dated 2014)

Tested on: DUBs immobilized on a Nexterion slide H
Assay: Microarray-based assay: cleavage and label transfer to immobilized DUBs
Assay type: biochemical
Details: 35 DUBs arrayed as triplicate spots; FIG. 5
Protocol: Since one of the primary uses for the substrates of the invention is localization of active deubiquitylases immobilized in a microarray-type format, i.e. solid phase assay, each of the substrates was tested for its ability to be cleaved and subsequently transfer label to DUBs immobilized on a Nexterion slide H (Schott). Thirty-five (35) DUBs were arrayed as a series of triplicate spots on the slide (see Table 6 for a map of the array) Three identical arrays were constructed on each slide. Several features that were common amongst each array on a given slide and between slides are shown boxed in red and numbered 1-7. […] It should be noted that the enzymes (and antibodies) were coupled 1) at different concentrations and 2) by covalent attachment through surface exposed lysines.

## ubiquitin-vinylsulfone
  immobilized enzymes labeled (positive features) on the microarray: all of the immobilized proteins were labeled
